# Results published in paper PMC9090415, “Discovery of small molecule inhibitors of Plasmodium falciparum apicoplast DNA polymerase” (Journal of Enzyme Inhibition and Medicinal Chemistry, 2022).
# Target: P. falciparum apicoplast DNA polymerase (Pf-apPOL) (Plasmodium falciparum, UniProt Q8ILY1)
# Assay: Fluorescence-based high-throughput DNA polymerase assay (molecular beacon), primary screen and dose-response;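 on % inhibition ApPOL 90': test concentration in µM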;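 on % inhibition apPOL 180': test concentration in µM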
# Format: biochemical
# Summary of the method: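 Single-point screening used 10 µM compound with 20 nM polymerase, 20 nM hairpin substrate and 6 µM dNTPs for 90 min at 25 °C. Confirmatory titrations (2.5–80 µM) followed fluorescence at three times, and IC50 was derived from a fit including a cooperativity term n.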
# [1] = DRC-2, 40', concentration 20 (unit not given)
# [2] = DRC-2, 180', concentration 20 (unit not given)
# [3] = primary screen value of the 186 hits; unit not given; 90 min, 10 µM
# [4] = primary screen value, head "DNA Pol", unit not given; 90 min, 10 µM
# Sequence of P. falciparum apicoplast DNA polymerase (Pf-apPOL) (Q8ILY1 entry or part of it): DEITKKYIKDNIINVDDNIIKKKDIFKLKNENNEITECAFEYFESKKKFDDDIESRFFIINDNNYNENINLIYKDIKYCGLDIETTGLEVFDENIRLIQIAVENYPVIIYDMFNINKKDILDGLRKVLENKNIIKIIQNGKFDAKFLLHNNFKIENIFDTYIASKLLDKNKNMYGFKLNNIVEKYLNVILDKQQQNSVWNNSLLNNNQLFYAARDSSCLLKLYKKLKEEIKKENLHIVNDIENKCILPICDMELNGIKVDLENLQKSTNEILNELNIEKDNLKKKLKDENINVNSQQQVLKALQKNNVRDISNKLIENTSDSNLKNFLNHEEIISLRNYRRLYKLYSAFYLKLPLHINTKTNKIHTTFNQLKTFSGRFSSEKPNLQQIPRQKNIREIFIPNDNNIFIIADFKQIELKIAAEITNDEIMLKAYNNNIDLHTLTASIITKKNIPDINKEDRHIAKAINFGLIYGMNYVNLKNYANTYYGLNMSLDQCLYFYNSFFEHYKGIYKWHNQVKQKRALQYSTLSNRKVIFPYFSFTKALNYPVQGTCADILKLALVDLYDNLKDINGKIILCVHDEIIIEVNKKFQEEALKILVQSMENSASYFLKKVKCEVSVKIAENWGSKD
structure (smiles),measurement,setting,value
CCCCCCCCCCCCCCCCCC(=O)CCN(C)C [KU0271928],% inhibition Apo pol 10',DRC-1; 10'; concentration 2.5,4.376%
same,% inhibition Apo pol 10',DRC-1; 10'; concentration 5,8.002%
same,% inhibition Apo pol 10',DRC-1; 10'; concentration 10,14.7164%
same,% inhibition Apo pol 10',DRC-1; 10'; concentration 20,22.8957%
same,% inhibition Apo pol 10',DRC-1; 10'; concentration 40,29.808%
same,% inhibition Apo pol 10',DRC-1; 10'; concentration 80,46.1524%
same,% inhibition Apol 90',DRC-1; 90'; concentration 2.5,3.047%
same,% inhibition Apol 90',DRC-1; 90'; concentration 5,4.9355%
same,% inhibition Apol 90',DRC-1; 90'; concentration 10,15.0466%
same,% inhibition Apol 90',DRC-1; 90'; concentration 20,24.954%
same,% inhibition Apol 90',DRC-1; 90'; concentration 40,42.2957%
same,% inhibition Apol 90',DRC-1; 90'; concentration 80,71.469%
same,% inhibition apPOL 180',DRC-1; 180'; concentration 2.5,2.105%
same,% inhibition apPOL 180',DRC-1; 180'; concentration 5,0.02519%
same,% inhibition apPOL 180',DRC-1; 180'; concentration 10,10.3787%
same,% inhibition apPOL 180',DRC-1; 180'; concentration 20,23.1469%
same,% inhibition apPOL 180',DRC-1; 180'; concentration 40,44.4373%
same,% inhibition apPOL 180',DRC-1; 180'; concentration 80,80.1406%
same,% inhibition Apol 40',"DRC-2, 40', concentration 5 (unit not given)",4%
same,% inhibition Apol 40',[1],13%
same,% inhibition apPOL 180',"DRC-2, 180', concentration 5 (unit not given)",4%
same,% inhibition apPOL 180',[2],13%
same,% inhibition Apo pol 5',DRC-2; 5'; concentration 2.5,0.736%
same,% inhibition Apo pol 5',DRC-2; 5'; concentration 5,1.37%
same,% inhibition Apo pol 5',DRC-2; 5'; concentration 10,2.68%
same,% inhibition Apo pol 5',DRC-2; 5'; concentration 20,5.52%
same,% inhibition Apo pol 5',DRC-2; 5'; concentration 40,18%
same,% inhibition Apo pol 5',DRC-2; 5'; concentration 80,37%
same,% inhibition Apol 40',DRC-2; 40'; concentration 2.5,2.22%
same,% inhibition Apol 40',DRC-2; 40'; concentration 5,4%
same,% inhibition Apol 40',DRC-2; 40'; concentration 10,4.59%
same,% inhibition Apol 40',DRC-2; 40'; concentration 20,13%
same,% inhibition Apol 40',DRC-2; 40'; concentration 40,28%
same,% inhibition Apol 40',DRC-2; 40'; concentration 80,61%
same,% inhibition ApPOL 90',DRC-2; 90'; concentration 2.5,1.86%
same,% inhibition ApPOL 90',DRC-2; 90'; concentration 5,3.32%
same,% inhibition ApPOL 90',DRC-2; 90'; concentration 10,2.69%
same,% inhibition ApPOL 90',DRC-2; 90'; concentration 20,12%
same,% inhibition ApPOL 90',DRC-2; 90'; concentration 40,30%
same,% inhibition ApPOL 90',DRC-2; 90'; concentration 80,67%
same,% inhibition apPOL 180',DRC-2; 180'; concentration 2.5,1.53%
same,% inhibition apPOL 180',DRC-2; 180'; concentration 5,4%
same,% inhibition apPOL 180',DRC-2; 180'; concentration 10,2.45%
same,% inhibition apPOL 180',DRC-2; 180'; concentration 20,13%
same,% inhibition apPOL 180',DRC-2; 180'; concentration 40,31%
same,% inhibition apPOL 180',DRC-2; 180'; concentration 80,73%
same,DNA Pol,[3],46
same,DNA Pol,[4],46
CCOC(=O)C(NCc1ccco1)(NC(=O)c1ccco1)C(F)(F)F (stereo not drawn) [KU0276119],DNA Pol,"186 hits, value of the hit list (primary screen); unit not given; 90 min, 10 µM",69
same,% inhibition Apo pol 10',DRC-1; 10'; concentration 2.5,-0.8683%
same,% inhibition Apo pol 10',DRC-1; 10'; concentration 5,4.257%
same,% inhibition Apo pol 10',DRC-1; 10'; concentration 10,15.6994%
same,% inhibition Apo pol 10',DRC-1; 10'; concentration 20,30.4809%
same,% inhibition Apo pol 10',DRC-1; 10'; concentration 40,51.156%
same,% inhibition Apo pol 10',DRC-1; 10'; concentration 80,69.3233%
same,% inhibition Apol 90',DRC-1; 90'; concentration 2.5,-1.328%
same,% inhibition Apol 90',DRC-1; 90'; concentration 5,-2.247%
same,% inhibition Apol 90',DRC-1; 90'; concentration 10,3.449%
same,% inhibition Apol 90',DRC-1; 90'; concentration 20,14.6625%
same,% inhibition Apol 90',DRC-1; 90'; concentration 40,31.3437%
same,% inhibition Apol 90',DRC-1; 90'; concentration 80,52.4823%
same,% inhibition apPOL 180',DRC-1; 180'; concentration 2.5,-2.149%
same,% inhibition apPOL 180',DRC-1; 180'; concentration 5,-6.365%
same,% inhibition apPOL 180',DRC-1; 180'; concentration 10,-5.1582%
same,% inhibition apPOL 180',DRC-1; 180'; concentration 20,2.395%
same,% inhibition apPOL 180',DRC-1; 180'; concentration 40,15.7005%
same,% inhibition apPOL 180',DRC-1; 180'; concentration 80,35.8359%
same,% inhibition Apo pol 5',"DRC-2, 5', concentration 2.5",3%
same,% inhibition Apo pol 5',"DRC-2, 5', concentration 5",8.49%
same,% inhibition Apo pol 5',"DRC-2, 5', concentration 10",20%
same,% inhibition Apo pol 5',"DRC-2, 5', concentration 20",31%
same,% inhibition Apo pol 5',"DRC-2, 5', concentration 40",44%
same,% inhibition Apo pol 5',"DRC-2, 5', concentration 80",52%
same,% inhibition Apol 40',"DRC-2, 40', concentration 2.5",3%
same,% inhibition Apol 40',"DRC-2, 40', concentration 5",5%
same,% inhibition Apol 40',"DRC-2, 40', concentration 10",12%
same,% inhibition Apol 40',"DRC-2, 40', concentration 20",24%
same,% inhibition Apol 40',"DRC-2, 40', concentration 40",41%
same,% inhibition Apol 40',"DRC-2, 40', concentration 80",57%
same,% inhibition ApPOL 90',"DRC-2, 90', concentration 2.5",1.27%
same,% inhibition ApPOL 90',"DRC-2, 90', concentration 5",0%
same,% inhibition ApPOL 90',"DRC-2, 90', concentration 10",7%
same,% inhibition ApPOL 90',"DRC-2, 90', concentration 20",17%
same,% inhibition ApPOL 90',"DRC-2, 90', concentration 40",36%
same,% inhibition ApPOL 90',"DRC-2, 90', concentration 80",54%
same,% inhibition apPOL 180',"DRC-2, 180', concentration 2.5",-2.49%
same,% inhibition apPOL 180',"DRC-2, 180', concentration 5",-7%
same,% inhibition apPOL 180',"DRC-2, 180', concentration 10",-2%
same,% inhibition apPOL 180',"DRC-2, 180', concentration 20",2.7%
same,% inhibition apPOL 180',"DRC-2, 180', concentration 40",21%
same,% inhibition apPOL 180',"DRC-2, 180', concentration 80",45%
same,% inhibition Apo pol 5',DRC-2; 5'; concentration 2.5,3%
same,% inhibition Apol 40',DRC-2; 40'; concentration 2.5,3%
same,DNA Pol,"primary screen value, 'DNA Pol' only; 90 min, 10 µM",69
"O=C(O)c1ccc(-c2nc3cc(-c4ccc5nc(-c6ccc(C(=O)O)cc6)[nH]c5c4)ccc3[nH]2)cc1 [Molecule 1, OC(=O)c1ccc(cc1)c1nc2c([nH]1)cc(cc2)c1ccc2c(c1)nc([nH]2)c1ccc(cc1)C(=O)O]",% inhibition Apo pol 10',DRC-1; 10'; concentration 2.5,4.605%
same,% inhibition Apo pol 10',DRC-1; 10'; concentration 5,47.5072%
same,% inhibition Apo pol 10',DRC-1; 10'; concentration 10,71.1755%
same,% inhibition Apo pol 10',DRC-1; 10'; concentration 20,72.8856%
same,% inhibition Apo pol 10',DRC-1; 10'; concentration 40,63.5867%
same,% inhibition Apo pol 10',DRC-1; 10'; concentration 80,67.7005%
same,% inhibition Apol 90',DRC-1; 90'; concentration 2.5,3.724%
same,% inhibition Apol 90',DRC-1; 90'; concentration 5,40.2973%
same,% inhibition Apol 90',DRC-1; 90'; concentration 10,67.3465%
same,% inhibition Apol 90',DRC-1; 90'; concentration 20,73.5196%
same,% inhibition Apol 90',DRC-1; 90'; concentration 40,66.9827%
same,% inhibition Apol 90',DRC-1; 90'; concentration 80,77.5146%
same,% inhibition apPOL 180',DRC-1; 180'; concentration 2.5,2.544%
same,% inhibition apPOL 180',DRC-1; 180'; concentration 5,30.2265%
same,% inhibition apPOL 180',DRC-1; 180'; concentration 10,61.3297%
same,% inhibition apPOL 180',DRC-1; 180'; concentration 20,73.7422%
same,% inhibition apPOL 180',DRC-1; 180'; concentration 40,70.4852%
same,% inhibition apPOL 180',DRC-1; 180'; concentration 80,81.7521%
same,% inhibition Apo pol 5',"DRC-2, 5', concentration 2.5 (unit not given)",30%
same,% inhibition Apo pol 5',"DRC-2, 5', concentration 20 (unit not given)",37%
same,% inhibition Apo pol 5',"DRC-2, 5', concentration 40 (unit not given)",37%
same,% inhibition Apol 40',"DRC-2, 40', concentration 2.5 (unit not given)",30%
same,% inhibition Apol 40',"DRC-2, 40', concentration 10 (unit not given)",32%
same,% inhibition Apol 40',[1],41%
same,% inhibition Apol 40',"DRC-2, 40', concentration 80 (unit not given)",32%
same,% inhibition ApPOL 90',"DRC-2, 90', concentration 80 (unit not given)",41%
same,% inhibition apPOL 180',[2],37%
same,% inhibition Apo pol 5',DRC-2; 5'; concentration 2.5,30%
same,% inhibition Apo pol 5',DRC-2; 5'; concentration 5,7%
same,% inhibition Apo pol 5',DRC-2; 5'; concentration 10,33%
same,% inhibition Apo pol 5',DRC-2; 5'; concentration 20,37%
same,% inhibition Apo pol 5',DRC-2; 5'; concentration 40,37%
same,% inhibition Apo pol 5',DRC-2; 5'; concentration 80,22%
same,% inhibition Apol 40',DRC-2; 40'; concentration 2.5,30%
same,% inhibition Apol 40',DRC-2; 40'; concentration 5,4%
same,% inhibition Apol 40',DRC-2; 40'; concentration 10,32%
same,% inhibition Apol 40',DRC-2; 40'; concentration 20,41%
same,% inhibition Apol 40',DRC-2; 40'; concentration 40,48%
same,% inhibition Apol 40',DRC-2; 40'; concentration 80,32%
same,% inhibition ApPOL 90',DRC-2; 90'; concentration 2.5,25%
same,% inhibition ApPOL 90',DRC-2; 90'; concentration 5,1.89%
same,% inhibition ApPOL 90',DRC-2; 90'; concentration 10,28%
same,% inhibition ApPOL 90',DRC-2; 90'; concentration 20,40%
same,% inhibition ApPOL 90',DRC-2; 90'; concentration 40,53%
same,% inhibition ApPOL 90',DRC-2; 90'; concentration 80,41%
same,% inhibition apPOL 180',DRC-2; 180'; concentration 2.5,14%
same,% inhibition apPOL 180',DRC-2; 180'; concentration 5,-1.88%
same,% inhibition apPOL 180',DRC-2; 180'; concentration 10,20%
same,% inhibition apPOL 180',DRC-2; 180'; concentration 20,37%
same,% inhibition apPOL 180',DRC-2; 180'; concentration 40,56%
same,% inhibition apPOL 180',DRC-2; 180'; concentration 80,49%
same,DNA Pol,[3],68
same,DNA Pol,[4],68
